Results from patent US5424296A, “2-Halo-2'-deoxyadenosines as therapeutic agents against malignant astrocytoma” (The Scripps Research Institute, priority 1993, dated 1995).
Where two headings read alike, the source gives them in different places.

Columns and labels:
malignant melanoma = assay: Phase I study, tumor response in malignant melanoma; assay type: in vivo, human; settings: twelve patients
Text: (§1) A response to this treatment process can be determined according to the criteria proposed by Macdonald et al., J. Clin. Oncol., 8:1277-1280 (1990). A complete response requires the disappearance of all enhancing tumor on consecutive CAT or MRI scans at least one month apart, off steroids, and that the patient be neurologically stable or improved. A partial response is defined as a greater or equal to 50 percent decrease in size (largest cross-sectional area) of enhancing tumor on consecutive CAT or MRI scans at least one month apart, steroids stable or reduced, and that the patient be neurologically stable or improved. All other tumor responses were designated as no response.
(§2) The patients received continuous infusions of either 0.10, 0.15 or 0.20 mg/kg/day over seven day time periods in up to five monthly cycles. The patients with malignant astrocytomas received either 0.10 or 0.15 mg/kg/day; none receiving 0.20 mg/kg/day.
(§3) The finally diluted solution was infused through central venus access using an infusion pump device (Pharmacia Deltec Cadd) for out-patients, or infused by usual venus infusion for in-patients.
(§4) Each of the patients, except three (one renal cell carcinoma and two malignant melanoma) patients, had received a prior treatment. Each of the patients with malignant astrocytoma had been treated both surgically and with X-rays or by chemotherapy.

granulocyte [1] = assay: Clinical treatment of multiple sclerosis, granulocyte counts; assay type: in vivo, human; settings: about 0.1 mg/kg/day, seven day courses of continuous infusion, after several courses
renal cell carcinoma = assay: Phase I study, tumor response in renal cell carcinoma; assay type: in vivo, human; settings: two patients
Text: as §1, §2, §3, §4

CFU-GM cells = settings: 100 nM 2-CdA; cited from earlier work
[2] = test system: Mature BFU-E (mBFU-E) cells; settings: read-out: IC50 (concentration required to inhibit 50 percent of growth); mBFU-E cells from normal patients; cited from earlier work
[3] = test system: colony forming unit-erythroid (CFU-E) cells; settings: read-out: IC50 (concentration required to inhibit 50 percent of growth); CFU-E cells from normal patients; cited from earlier work
CML in blast crisis = settings: cited from earlier work
neutrophils [4] = settings: cutaneous T cell lymphoma, 0.1 mg/kg per day over 7 days; cited from earlier work
neutrophils [5] = settings: chronic lymphocytic leukemia, serum levels less than 10 nM, in most cases; cited from earlier work
granulocyte [6] = settings: hairy cell leukemia, cited from earlier work
[7] = test system: Colony forming unit-granulocyte macrophage (CFU-GM) cells; settings: read-out: IC50 (concentration required to inhibit 50 percent of growth); CFU-GM cells from normal patients; cited from earlier work
malignant astrocytoma = assay: Phase I study, tumor response in malignant astrocytoma; assay type: in vivo, human
Text: as §1, §2, §3, §4

[8] = test system: Primitive burst-forming unit-erythroid (pBFU-E) cells; settings: read-out: IC50 (concentration required to inhibit 50 percent of growth); pBFU-E cells from normal patients; cited from earlier work
[9] = test system: Erythroid progenitor cells; settings: cultured marrow and blood cells from normal patients; cited from earlier work
Phase I study, toxicity = assay type: in vivo, human
Procedure: as §2, §3

With `Nc1nc(Cl)nc2c1ncn2[C@H]1C[C@H](O)[C@@H](CO)O1` [2-CdA, 2-chloro-2'-deoxyadenosine] the “patients with partial response” value (malignant melanoma) was “None”, the granulocyte counts (granulocyte [1]) was “substantially unchanged” and the “patients with partial response” value (renal cell carcinoma) was “None”. The “reduction of growth of CFU-GM cells” value (CFU-GM cells) was 60%, the IC50 [2] was 0.038 µM and the IC50 [3] was 0.056 µM. The detectable tumor (CML in blast crisis; another of two patients) was “loss of detectable tumor”, the blast count (CML in blast crisis; one of two patients) was “decrease in blast count” and the “resistance of neutrophils relative to monocytes and lymphocytes” value (neutrophils [4]) was “more resistant to 2-CdA than their monocytes and lymphocytes”. The neutrophil count (neutrophils [5]) was “increase in neutrophil count”, the granulocyte counts (granulocyte [6]; transient neutropenia) was “under 500 per microliter” and the neutropenia (granulocyte [6]; particularly acute in patients already neutropenic) was “transient neutropenia”. The IC50 [7] was 0.016 µM, the “duration of partial response” value (malignant astrocytoma; patient No. 1, grade 2 astrocytoma, four cycles at 0.10 mg/kg/day) was “seven” and the “coronal MRI of brain after treatment” value (malignant astrocytoma; patient No. 1, intravenous contrast) was “resolution of tumor enhancement”. For the same compound, the “axial spin echo MRI of brain after treatment” value (malignant astrocytoma; patient No. 12) was “complete regression of the edema and shrinkage of the cyst”, the “cyst on sagittal T1-weighted imaging after treatment” value (malignant astrocytoma; patient No. 12) was “smaller in size and higher in signal intensity” and the “sagittal T1-weighted imaging of brain after treatment” value (malignant astrocytoma; patient No. 12) was “complete regression of the temporal lobe swelling, with restoration of a normal sulcal pattern”. The “duration of partial response” value (malignant astrocytoma; patient No. 12, GBM, five cycles at 0.15 mg/kg/day) was “nine”, the “responding patients (partial response)” value (malignant astrocytoma; two of seven malignant astrocytoma patients, 0.1 or 0.15 mg/kg/day) was 28.6% and the “median duration of partial response” value (malignant astrocytoma; two responding patients) was “eight”. The IC50 [8] was 0.019 µM, the “sensitivity of erythroid progenitor cells to 2-CdA” value [9] was “dose-dependent sensitivity to 2-CdA, with that sensitivity decreasing as the stage of progenitor maturation increased” and the myelosuppression per cycles (Phase I study, toxicity; 0.10 mg/kg/day) was 1/18. For the same compound, the myelosuppression per cycles (Phase I study, toxicity; 0.15 mg/kg/day) was 5/22, the myelosuppression per cycles (Phase I study, toxicity; 0.20 mg/kg/day) was 3/4 and the “myelosuppression, dose dependence” value (Phase I study, toxicity; 0.10, 0.15, 0.20 mg/kg/day) was “increased with dosage”. For the same compound, the principal toxic effect (Phase I study, toxicity; all patients) was “Myelosuppression”, the “alopecia, nausea, vomiting, cardiopulmonary, renal or hepatic toxicity” value (Phase I study, toxicity; any patient of the study) was “No alopecia, nausea, vomiting, cardiopulmonary, renal or hepatic toxicity occurred” and the “myelosuppression in patients with previous biologic therapy” value (Phase I study, toxicity; in vivo) was “all of the patients with previous biologic therapy treatment developed myelosuppression”. The “patients with prior chemotherapy among those who developed myelosuppression” value (Phase I study, toxicity; in vivo) was “five of eight”, the “patients with prior chemotherapy among those without myelosuppression” value (Phase I study, toxicity; in vivo) was “two of thirteen” and the “patients with prior biologic therapies among those exhibiting myelosuppression” value (Phase I study, toxicity; interferon, interleukin-2, or lymphocyte-activated killer cells) was “Four of the eight”. The patients exhibiting myelosuppression (Phase I study, toxicity; malignant astrocytoma (GBM), seven patients) was “Two of the seven”, the “patients exhibiting delayed neurotoxicities” value (Phase I study, toxicity; malignant melanoma with prior therapy, unknown whether directly from 2-CdA) was “Two” and the type of myelosuppression (Phase I study, toxicity; one astrocytoma patient with prior surgical and X-ray treatments, after the fifth cycle) was “both neutropenia and thrombocytopenia”. The “myelosuppression (grades 3 or 4 neutropenia or thrombocytopenia), frequency by pretreatment” value (Phase I study, toxicity; prior exposure to systemic chemotherapy) was “more frequent in patients having had prior exposure to systemic chemotherapy”.
